This assay relates to E. coli clinical isolate. In words: microfluidic single cell antimicrobial susceptibility testing. Type of assay: cell-based. Conditions: 8 μg/ml ampicillin; during the duration of the experiment. The method, then: The microfluidic device for single cell antimicrobial susceptibility testing was fabricated by soft lithography. The microchannel master mold was fabricated by photolithography patterning and reactive-ion etching of a silicon wafer. Microchannel layers were then fabricated by PDMS molding on the master mold. PDMS pre-polymer and cross-linker were mixed at 10:1 ratio. The mixture was poured on the master mold and incubated for at least 3 hours at 65° C. The single cell antimicrobial susceptibility testing device was fabricated by bonding the PDMS layer with a glass slide. Inlet and outlet reservoirs were created by punching the PDMS layer with a biopsy puncher.
To perform the microfluidic single cell antimicrobial susceptibility testing experiment, ampicillin was added to the enriched samples with concentrations of 0 μg/mL, 2 μg/mL, 4 μg/mL, and 8 μg/mL. Each respective solution was loaded into a microfluidic device by capillary force. The devices were then mounted onto an epi-fluorescence microscope (Leica DMI 4000B, objective 20× or 40×) with a microscope heating stage. The presence of bacteria was examined, and the bacterial growth was monitored continuously.
The disclosed workflows may be used for antimicrobial susceptibility testing using a microfluidic device. […]

For `CC1(C)S[C@@H]2[C@H](NC(=O)[C@H](N)c3ccccc3)C(=O)N2[C@H]1C(=O)O` [ampicillin], the “effect on bacteria at higher concentration” value is on record as “some bacteria were lysed”.

For the origin of these results see patent US20240318225A1, “TECHNIQUES FOR ISOLATION OR ANALYSIS OF BACTERIAL PATHOGENS FROM PATIENT SAMPLES” (General Electric Company, priority 2021, published 2024).
